What was measured:
Type in all cases: cell-based, mouse
[1] = system: E2F-responsive construct; assay: Luciferase assay of E2F-responsive construct; conditions: cells exposed to DI in DM
Method: FIGS. 2A-D are graphs showing DI activation muscle-specific transcription in skeletal muscle cells. […] Luciferase activity was measured in non-treated cells cultured in either GM (GM) or DM (DM). […] The reporter activity was also analyzed in cells differentiated in the absence of TSA (DM) Mouse muscle myoblast C2C12 cells (obtained from the American Type Culture Collection, ATCC CRL-1772) and CC42 cells (from Dr. Kenneth Walsh, Tufts University School of Medicine) were cultured in DMEM supplemented with 20% fetal bovine serum, 2 mM glutamine and 1× kanamycin (growth medium, GM). Cellular differentiation was induced with DMEM supplemented with 2% horse serum and 1× insulin, transferring, selenium (Life Technologies). Human skeletal myocytes (CC-2561) were purchased from Clonetics. Stable C2C12 cell lines with integrated reporters are described in Wu, Z., et al., Mol Cell Biol 20:3951-64 (2000). The MCK-luc, 4RE-luc, MEF2 reporter constructs have been described in Puri, P. L., et al., EMBO Journal 16:369-83 (1997a) and Sartorelli, V., et al., Molecular & Cellular Biology 17:1010-26 (1997). The E2F-luc plasmid is described in […]., et al., Genes Dev 7:1850-61 (1993). […] Following transfections, luciferase activity was determined using the Dual-Luciferase reporter assay system (Promega) on a microtiter luminescence detection system (MLX, Dynex).

[2] = system: 4RE-luc and MCK-luc; assay: Chromatin-integrated muscle-specific reporters in stable C2C12 clones; conditions: TSA in GM (presence of serum), 48 hours
Method: (§1) FIGS. 2A-D are graphs showing DI activation muscle-specific transcription in skeletal muscle cells. […] Luciferase activity was measured in non-treated cells cultured in either GM (GM) or DM (DM). Alternatively, C2C12 were exposed to sodium butyrate for 24 hours in GM and then switched to DM without sodium butyrate (Butyr/GM>DM) or treated with sodium butyrate when cultured in DM (Butyr/DM) before being analyzed for luciferase activity. […] Luciferase assays were performed after culturing the cells for 48 hours in DM without sodium butyrate. […] The reporter activity was also analyzed in cells differentiated in the absence of TSA (DM)
(§2) Mouse muscle myoblast C2C12 cells (obtained from the American Type Culture Collection, ATCC CRL-1772) and CC42 cells (from Dr. Kenneth Walsh, Tufts University School of Medicine) were cultured in DMEM supplemented with 20% fetal bovine serum, 2 mM glutamine and 1× kanamycin (growth medium, GM). Cellular differentiation was induced with DMEM supplemented with 2% horse serum and 1× insulin, transferring, selenium (Life Technologies). Human skeletal myocytes (CC-2561) were purchased from Clonetics. […] Following transfections, luciferase activity was determined using the Dual-Luciferase reporter assay system (Promega) on a microtiter luminescence detection system (MLX, Dynex). […]

[3] = system: cyclinA-luc; assay: Integrated cyclinA-luc reporter in stable C2C12 clone; conditions: TSA treatment in GM
Method: as §1, §2

[4] = system: MyoD; assay: In vivo acetylation assay (3H-acetate incorporation); conditions: myoblasts cultured in GM
Method: In FIG. 3A, MyoD acetylation in undifferentiated C2C12 myoblasts (GM) untreated (−) or treated with either sodium butyrate (Butyr.) or TSA and in differentiated myotubes (abbrev. DM in FIG. 3A, but not to be confused with the abbreviation for “differentiation medium” as used elsewhere herein) was measured by ^3H incorporation of exogenously transfected Flag-tagged MyoD following metabolic labeling with ^3H sodium acetate as described in Sartorelli, V., et al., Molecular Cell 4:725-34 (1999). […] Chromatin was immunoprecipitated with antibodies against acetyl-histone 4 (AcH4) or IgG (as a control). Purified DNA from anti-AcH4 immunoprecipitated chromatin was analyzed by PCR using primers recognizing GAPDH promoter and MCK enhancer as described in Example 1. Unbound DNA (lanes 2 and 3, top panel) is an aliquot of chromatin not immunoprecipitated by anti-AcH4 antibody and amplified with GAPDH primers. Input (lanes 2 and 3, bottom panel) is an aliquot (1%) of the chromatin analyzed before the immunoprecipitation to quantify the amount of DNA present in different samples. […] Myoblasts were then formaldehyde cross-linked and processed.
In vivo acetylation assay was performed as described in Sartorelli, V., et al., Molecular Cell 4:725-34 (1999).
The acetylation of MyoD by ^3H-acetate incorporation in myoblasts, cultured in either the absence or presence of TSA, was evaluated. […]

CC(/C=C/C(=O)NO)=C\[C@@H](C)C(=O)c1ccc(N(C)C)cc1 [TSA, trichostatin A] was tested, and the “transcription driven from an E2F-responsive construct” value [1] was “stimulated”, the “activation of integrated 4RE-luc and MCK-luc templates” value [2] was “two-to-three” and the “serum-dependent transcription of integrated cyclinA-luc” value [3] was “not stimulated”. The “incorporation of 3H-acetate into transfected MyoD” value [4] was “stimulated the incorporation”.
